This note sets out measurements from patent US5935824A, “Protein expression system” (Technologene, Inc., priority 1996, dated 1999).

The target of the test is T1, carboxypeptidase Y (CPD-Y) immobilized to Acti-Disk (Saccharomyces cerevisiae, UniProt P00729).
T1 construct: purchased Sigma
T1 sequence (P00729 112-532): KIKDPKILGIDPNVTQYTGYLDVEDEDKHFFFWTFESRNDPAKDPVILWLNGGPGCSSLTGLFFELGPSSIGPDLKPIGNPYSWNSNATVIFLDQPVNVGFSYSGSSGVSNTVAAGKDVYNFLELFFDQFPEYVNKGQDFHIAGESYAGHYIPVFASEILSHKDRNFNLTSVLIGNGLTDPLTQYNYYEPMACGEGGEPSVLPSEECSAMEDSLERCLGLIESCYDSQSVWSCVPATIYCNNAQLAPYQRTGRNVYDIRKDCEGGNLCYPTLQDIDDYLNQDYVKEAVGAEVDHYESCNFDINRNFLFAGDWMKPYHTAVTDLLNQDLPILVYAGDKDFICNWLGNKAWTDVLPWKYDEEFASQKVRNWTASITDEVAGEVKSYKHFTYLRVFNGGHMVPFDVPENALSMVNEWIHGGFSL
In words: Flow digestion of N-CBZ-peptides through CPD-Y Acti Disk, ninhydrin assays. Format: biochemical, yeast. The procedure:
The reported Km values for CPD-Y have been generated using extremely low enzyme concentration compared to substrate concentration. The value for Km represents the concentration of substrate that will produce 1/2 the maximum velocity for the initial reaction rates. During the testing of the immobilized CPD-Y enzyme disks with various dipeptide substrates, the maximum flow rate that can be achieved without any substantial increase in the pressure of the solution, is 4 ml/min. At this flow rate, the substrate remains within the immobilized enzyme matrix for 1.74 seconds. This value is determined by dividing the internal porous volume of the matrix to which the enzyme is immobilized (115 μL/4000 μL, min^-1). Due to the high concentration of enzyme (565 μM) within the limited volume of the immobilization matrix (115 μl) a very high percentage of the substrate was hydrolyzed even at these short incubation times which prevents the accurate determination of actual Km values for the individual substrates.
Standard ninhydrin assay: Hydrolysis of the non-proline containing N-CBZ-dipeptides was determined by assaying the amount of free amino acid released by a colorometric ninhydrin reaction at a pH greater than 5.2. One gram of ninhydrin was dissolved in 50 ml ethylene glycol monomethyl ether containing 0.03% ascorbic acid. This ninhydrin solution was made fresh daily. A 0.4 M Citrate buffer, pH 5.2 was made by adjusting the pH of ACS grade citric acid with NaOH. Two hundred microliter samples at pH greater than 5.2 were mixed with an equal volume of ninhydrin reagent and incubated at 100° C. for 20 minutes. When 200 μl samples below pH 5.2 were to be assayed, 100 μl of 0.4 M Citrate buffer was included prior to heating the sample to 100° C. Samples were then cooled to room temperature and 600 μl of 60% ethanol was added as the diluent and the absorbance was read at 570 nm on a Beckman DU 7000 spectrophotometer.
Proline ninhydrin assay: Hydrolysis of proline-containing N-CBZ-dipeptides were measured with a modified version of the assay described by Magne and Larher [Anal. Biochem., 200:115 (1982)]. Briefly a ninhydrin reagent containing 2% ninhydrin prepared in glacial acetic acid:water 60:40 (v/v) was prepared. Five hundred microliter samples were combined with 500 μl glacial acetic acid and 500 μl ninhydrin reagent was added. The sample was subsequently boiled for one hour. One milliliter of analytical grade toluene was then used to extract the chromophore and the absorbance was read at 520 nm.
Concentrations of N-CBZ-Ala-Pro ranging from 4 mM to 100 μM (100 mM citrate, 100 mM NaCl, pH 5.75) were passed through a CPD-Y Acti Disk at a flow rate of 2.0 ml/min. Reaction rates were determined by assaying the appropriate dilutions of the various substrates using the above described proline ninhydrin assay specific of free proline to obtain […] readings below 1.5.
N-CBZ-Ala-Pro (dissolved in 100 mM citrate, 100 mM NaCl, pH 5.75) at a concentration of 200 μM, was passed through the same CPD-Y Acti Disk at flow rates ranging from 2 ml/min to 175 μl/ min. Five milliliters of each specific flow rate were collected and assayed by the proline ninhydrin assay in order to determine the relative percentage of substrate that was hydrolyzed using the various flow rates. In order to characterize the amount of substrate hydrolyzed per unit of time, flow rates are converted to amount of time that the substrate is within the immobilized enzyme matrix (Acti Disk). The amount of time the substrate is within the immobilized enzyme matrix at a given flow rate is shown below in Table 6.
The first order rate constant determined for the N-CBZ-Ala-Pro substrate is applicable only as a reference for comparison to other N-CBZ-dipeptide first order rate constants. N-CBZ-Phe-Ala is the substrate used by Sigma to characterize the activity of CPD-Y at 100 units per milligram, 1 unit can hydrolyze 1 μmol of N-CBZ-Phe-Ala per minute. […]

[1] abbreviates: 200 μM substrate, varied flow rates.
The mark [2] stands for this setting: flow rate 2 ml/min, 3.45 seconds, pH 5.75, ~25° C.
[3] abbreviates: 200 μM substrate, 2 × 2 ml/min (two passes).
Where [4] appears, read: 200 μM substrate, flow rate 0.25 ml/min, one pass.
The mark [5] stands for this setting: 200 μM substrate, flow rate 1.0 ml/min, one pass.
Where [6] appears, read: 200 μM substrate, flow rate 2.0 ml/min, one pass.
The mark [7] stands for this setting: second flow at 2.0 ml/min, 3.45 seconds.

Residues, ends and D or L forms follow the SMILES beside them. *: point of attachment. Cbz = O=C(OCc1ccccc1)*

For the molecule `C[C@H](NC(=O)OCc1ccccc1)C(=O)N1CCC[C@H]1C(=O)O` [N-CBZ-Ala-Pro] (Cbz-Ala-Pro-OH), the First-order rate constant was 3.84 min⁻¹ (200 μM substrate, converted from seconds^-1) and 4.14 min⁻¹ under setting [1]. For the same molecule, the “Log S/S-P” value reads like this: (200 μM substrate, flow rate 175 μl/min, 36.4 seconds) 1.541; (200 μM substrate, flow rate 350 μl/min, 19.7 seconds) 1.022; (200 μM substrate, flow rate 1000 μl/min, 6.90 seconds) “.672”; (200 μM substrate, flow rate 2000 ml/min (so in the source), 3.45 seconds) “.560”; (500 μM substrate, 1 pass at 2000 μl/min, 3.45 sec) “.614”; (500 μM substrate, 2 passes at 2000 μl/min, 6.90 sec) 1.236. The “Log S/S-P” value was determined as 1.870 (500 μM substrate, 3 passes at 2000 μl/min, 10.35 sec) and 0.560 under setting [2]. Moreover, the “Slope of log [S]/[S]-[P] over seconds” value under setting [1] came out at 0.030. Moreover, the “Slope of log [S]/[S]-[P] versus seconds” value (500 μM substrate, repeated passes at 2000 μl/min) came out at 0.199. For the same molecule, under setting [2], the “K^1 min^-1 (first order reaction constant)” value came to 22.40 min⁻¹. Further, the Velocity is, setting by setting: (substrate concentration 100 μM, flow rate 2.0 ml/min, pH 5.75) 170 nM/min; (substrate concentration 200 μM, flow rate 2.0 ml/min, pH 5.75) 344 nM/min; (substrate concentration 300 μM, flow rate 2.0 ml/min, pH 5.75) 503 nM/min; (substrate concentration 500 μM, flow rate 2.0 ml/min, pH 5.75) 846 nM/min; (substrate concentration 1000 μM, flow rate 2.0 ml/min, pH 5.75) 1684 nM/min.

For `C[C@H](NC(=O)[C@H](Cc1ccccc1)NC(=O)OCc1ccccc1)C(=O)O` [N-CBZ-Phe-Ala], the “Concentration of released alanine” value (20 mM substrate, flow rate 4 ml/minute) is 10.49 mM. This molecule also displayed a Rate of digestion (20 mM substrate, flow rate 4 ml/minute, pH 5.75) of 41.96 µmol/min.

As for `CC(C)C[C@H](NC(=O)[C@@H]1CCCN1C(=O)CNC(=O)OCc1ccccc1)C(=O)N[C@@H](C)C(=O)N1CCC[C@H]1C(=O)O` [N-CBZ-Gly-Pro-Leu-Ala-Pro] (Cbz-GPLAP-OH), the “Concentration of amino acids released, standard ninhydrin assay” value is, setting by setting: under setting [3], 353.4 µM; under setting [4], 384.0 µM; under setting [5], 315.9 µM; under setting [6], 265.7 µM. For the same molecule, the “Concentration of proline released, proline ninhydrin assay” value was found to be 195.6 µM under setting [3], 212.5 µM under setting [4], 196.5 µM under setting [5] and 197.0 µM under setting [6]. For the same molecule, the “Kinetic constant k for the remaining Pro-Leu bond” value under setting [7] worked out at 18.39. For the same molecule, under setting [7], the “Product released in second flow” value came out at 87.7 µM.

On to `O=C(NCC(=O)N1CCC[C@H]1C(=O)O)OCc1ccccc1` [N-CBZ-Gly-Pro] (Cbz-Gly-Pro-OH), for which, under setting [2], the “K^1 min^-1 (first order reaction constant)” value stood at 0.160 min⁻¹ and the “Log S/S-P” value turned out to be 0.004.

`O=C(O)[C@H](Cc1ccccc1)NC(=O)[C@@H]1CCCN1C(=O)OCc1ccccc1` [N-CBZ-Pro-Phe] (Cbz-Pro-Phe-OH): under setting [2], the “K^1 min^-1 (first order reaction constant)” value is 1.480 min⁻¹ and the “Log S/S-P” value was 0.037.

On to `CC(C)C[C@H](NC(=O)[C@H](C)NC(=O)OCc1ccccc1)C(=O)O` [N-CBZ-Ala-Leu] (Cbz-Ala-Leu-OH), for which, under setting [2], the “K^1 min^-1 (first order reaction constant)” value amounted to 27.52 min⁻¹ and the “Log S/S-P” value was found to be 0.688.

Regarding `O=C(O)CC[C@H](NC(=O)OCc1ccccc1)C(=O)N[C@@H](Cc1ccc(O)cc1)C(=O)O` [N-CBZ-Glu-Tyr] (Cbz-Glu-Tyr-OH), under setting [2], the “K^1 min^-1 (first order reaction constant)” value was 24.24 min⁻¹ and the “Log S/S-P” value turned out to be 0.606.
